Results on 1 molecule are retold here after ChEMBL document CHEMBL1155307, “4-Anilino-7-pyridyl-3-quinolinecarbonitriles as Src kinase inhibitors” (Bioorg Med Chem Lett, 2009).

Each structure is given as a SMILES string.

For this assay, the target named is Proto-oncogene tyrosine-protein kinase Src (Homo sapiens, UniProt P12931). As to the kind of experiment: Inhibition of Src.

A word on the IC50: it is the concentration needed to halve the response being measured. Read a low IC50 as inhibition by little substance.

Proto-oncogene tyrosine-protein kinase Src, sequence (P12931 2-536 limits assumed): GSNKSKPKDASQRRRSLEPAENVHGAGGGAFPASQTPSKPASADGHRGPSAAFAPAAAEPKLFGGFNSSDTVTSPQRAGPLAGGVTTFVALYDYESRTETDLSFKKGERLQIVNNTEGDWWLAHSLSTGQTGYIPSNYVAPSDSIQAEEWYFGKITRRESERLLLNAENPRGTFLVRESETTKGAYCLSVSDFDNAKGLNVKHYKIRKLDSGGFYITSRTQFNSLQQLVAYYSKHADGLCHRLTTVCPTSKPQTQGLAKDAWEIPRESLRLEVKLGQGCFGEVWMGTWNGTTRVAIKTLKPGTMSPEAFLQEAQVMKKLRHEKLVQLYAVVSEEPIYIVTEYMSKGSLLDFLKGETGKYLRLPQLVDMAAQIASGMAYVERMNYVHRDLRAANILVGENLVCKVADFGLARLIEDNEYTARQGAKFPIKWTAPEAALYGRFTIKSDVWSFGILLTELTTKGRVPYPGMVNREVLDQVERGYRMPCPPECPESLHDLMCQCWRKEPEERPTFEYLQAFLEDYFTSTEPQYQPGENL

Turning to `COc1cc(Nc2c(C#N)cnc3cc(-c4ncccc4CN4CCOCC4)ccc23)c(Cl)cc1Cl`, the IC50 turned out to be 950 nM.
